This test deals with M. tuberculosis. As to the kind of experiment: microbe, parasite or virus in culture. The settings on record: resistance profile INH; for MIC90: Mycobacterium tuberculosis. It is filed as cell-based, Mycobacterium tuberculosis.
[1] abbreviates: read-out: In vitro MIC90, strain BC-MDR2, RIF, PZA, SM, RBT.
The mark [2] stands for this setting: read-out: In vitro MIC90, strain BC-MDR3, RIF, RBT.
The mark [3] stands for this setting: read-out: In vitro MIC90, strain BC-MDR4, RIF, EMB, PZA, RBT.
The mark [4] stands for this setting: read-out: In vitro MIC90, strain BC-MDR5, RIF, PZA, SM, PAS, RBT.
Where [5] appears, read: read-out: In vitro MIC90, strain CI5058, RIF.
Setting [6] is: read-out: In vitro MIC90, strain CI5072, RIF, SM.
Setting [7] is: read-out: In vitro MIC90, strain CI5297.
[8] abbreviates: read-out: In vitro MIC90, strain CI5305.
Where [9] appears, read: read-out: In vitro MIC90, strain CI5324, RIF.
Where [10] appears, read: read-out: In vitro MIC90, strain CI5358, EMB, ETH.
[11] abbreviates: read-out: In vitro MIC90, strain CI5400, RIF.
[12] abbreviates: read-out: In vitro MIC90, strain CI5447.
The mark [13] stands for this setting: read-out: In vitro MIC90, strain CI5459, EMB, ETH.
Where [14] appears, read: read-out: In vitro MIC90, strain CI12081, RIF, SM, EMB, ETH.
Where [15] appears, read: read-out: In vitro MIC90, strain KZN5, RIF, SM, EMB, ETH, KM, PZA.
Setting [16] is: read-out: In vitro MIC90, strain KZN6, RIF, SM, EMB, ETH, KM, PZA.
[17] abbreviates: read-out: In vitro MIC90, strain KZN11, RIF, SM, EMB.
Where [18] appears, read: read-out: In vitro MIC90, strain KZN12, RIF, SM, EMB, ETH, KM, PZA.
Setting [19] is: read-out: In vitro MIC90, strain KZN14, RIF, SM, EMB, ETH, KM, PZA.
Setting [20] is: read-out: In vitro MIC90, strain KZN15, RIF, SM, EMB, ETH, KM, PZA.
[21] abbreviates: read-out: In vitro MIC90, strain KZN16, RIF, SM, EMB, ETH, KM, PZA.
[22] abbreviates: read-out: In vitro MIC90, strain V2475, RIF.

The structures appear in SMILES notation. Converted amounts (≈) assume the structure as drawn. Read-outs that look alike come from different tables or passages of the source. A value given as a limit tells only on which side of the number the result lay.

Turning to `CC[C@H](C)[C@H]1O[C@]2(CC[C@@H]1C)C[C@@H]1C[C@@H](C/C=C(\C)[C@@H](O[C@H]3C[C@H](OC)[C@@H](O[C@H]4C[C@H](OC)[C@@H](O)[C@H](C)O4)[C@H](C)O3)[C@@H](C)/C=C/C=C3\CO[C@@H]4[C@H](O)C(C)=C[C@@H](C(=O)O1)[C@]34O)O2` [Ivermectin], the “In vitro MIC90” value is over 128 µg/mL (strain BC-MDR2, RIF, PZA, SM, RBT); 1 to 2 µg/mL (strain BC-MDR3, RIF, RBT); 4 to 16 µg/mL (strain BC-MDR4, RIF, EMB, PZA, RBT); 4 to 16 µg/mL (strain BC-MDR5, RIF, PZA, SM, PAS, RBT); 6 µg/mL (strain CI5058, RIF); over 24 µg/mL (strain CI5072, RIF, SM). Further, the “In vitro MIC90” value by setting is: (strain CI5297) 6 µg/mL; (strain CI5305) 3 µg/mL; (strain CI5324, RIF) 6 µg/mL; (strain CI5358, EMB, ETH) 3 µg/mL; (strain CI5400, RIF) 3 µg/mL; (strain CI5447) 1.5 µg/mL. The “In vitro MIC90” value runs as follows: (strain CI5459, EMB, ETH) 3 µg/mL; (strain CI12081, RIF, SM, EMB, ETH) over 24 µg/mL; (strain H37Rv mc^24977) 6 µg/mL; (strain H37Rv mc^25857, RIF) 3 µg/mL; (strain H37Rv mc^25858, RIF) 3 µg/mL; (strain KZN5, RIF, SM, EMB, ETH, KM, PZA) 6 µg/mL. Besides, the “In vitro MIC90” value by setting is: (strain KZN6, RIF, SM, EMB, ETH, KM, PZA) 6 µg/mL; (strain KZN11, RIF, SM, EMB) 3 µg/mL; (strain KZN12, RIF, SM, EMB, ETH, KM, PZA) 3 µg/mL; (strain KZN14, RIF, SM, EMB, ETH, KM, PZA) 6 to 12 µg/mL; (strain KZN15, RIF, SM, EMB, ETH, KM, PZA) 6 µg/mL; (strain KZN16, RIF, SM, EMB, ETH, KM, PZA) 3 µg/mL. Also, the “In vitro MIC90” value (strain V2475, RIF) amounted to 1.5 µg/mL.

As for `CO/N=C1\C[C@]2(C[C@@H]3C[C@@H](C/C=C(\C)C[C@@H](C)/C=C/C=C4\CO[C@@H]5[C@H](O)C(C)=C[C@@H](C(=O)O3)[C@]45O)O2)O[C@H](/C(C)=C/C(C)C)[C@H]1C` [Moxidectin], the MIC90 under setting [1] was in the range of 2 to 4 µg/mL (≈ 3.13 to 6.25 µM); the MIC90 under setting [2] fell in the range of 1 to 2 µg/mL (≈ 1.56 to 3.13 µM); the MIC90 under setting [3] lay in the range of 2 to 4 µg/mL (≈ 3.13 to 6.25 µM); the MIC90 under setting [4] was 2 to 4 µg/mL (≈ 3.13 to 6.25 µM); the MIC90 under setting [5] worked out at 6 µg/mL (≈ 9.38 µM); the MIC90 under setting [6] amounted to 3 µg/mL (≈ 4.69 µM). For the same compound, the MIC90 is, setting by setting: under setting [7], 6 µg/mL (≈ 9.38 µM); under setting [8], 1.5 µg/mL (≈ 2.34 µM); under setting [9], 3 µg/mL (≈ 4.69 µM); under setting [10], 3 µg/mL (≈ 4.69 µM); under setting [11], 3 µg/mL (≈ 4.69 µM); under setting [12], 0.8 to 1.5 µg/mL (≈ 1.25 to 2.34 µM). Also, the MIC90 is, setting by setting: under setting [13], 1.5 µg/mL (≈ 2.34 µM); under setting [14], 3 µg/mL (≈ 4.69 µM); under setting [15], 3 µg/mL (≈ 4.69 µM); under setting [16], 3 µg/mL (≈ 4.69 µM); under setting [17], 3 µg/mL (≈ 4.69 µM); under setting [18], 1.5 µg/mL (≈ 2.34 µM). The MIC90 was 3 to 6 µg/mL (≈ 4.69 to 9.38 µM) under setting [19], 3 µg/mL (≈ 4.69 µM) under setting [20], 1.5 µg/mL (≈ 2.34 µM) under setting [21] and 3 µg/mL (≈ 4.69 µM) under setting [22].

As for `CO[C@H]1C[C@H](O[C@@H]2/C(C)=C/C[C@@H]3C[C@@H](C[C@]4(CC[C@H](C)[C@@H](C5CCCCC5)O4)O3)OC(=O)[C@@H]3C=C(C)/C(=N/O)[C@H]4OC/C(=C\C=C\[C@@H]2C)[C@]43O)O[C@@H](C)[C@@H]1O` [Selamectin], the MIC90 by setting is: under setting [1], 2 µg/mL (≈ 2.6 µM); under setting [2], 0.5 to 1 µg/mL (≈ 0.649 to 1.3 µM); under setting [3], 2 µg/mL (≈ 2.6 µM); under setting [4], 2 µg/mL (≈ 2.6 µM); under setting [5], 6 µg/mL (≈ 7.79 µM); under setting [6], 3 to 6 µg/mL (≈ 3.9 to 7.79 µM). Besides, the MIC90 under setting [7] was 3 µg/mL (≈ 3.9 µM); the MIC90 under setting [8] is 1.5 µg/mL (≈ 1.95 µM); the MIC90 under setting [9] stood at 3 µg/mL (≈ 3.9 µM); the MIC90 under setting [10] was 1.5 µg/mL (≈ 1.95 µM); the MIC90 under setting [11] turned out to be 3 µg/mL (≈ 3.9 µM); the MIC90 under setting [12] was determined as 1.5 µg/mL (≈ 1.95 µM). In addition, the MIC90 is 1.5 to 3 µg/mL (≈ 1.95 to 3.9 µM) under setting [13]; 3 µg/mL (≈ 3.9 µM) under setting [14]; 3 µg/mL (≈ 3.9 µM) under setting [15]; 6 µg/mL (≈ 7.79 µM) under setting [16]; 3 µg/mL (≈ 3.9 µM) under setting [17]; 3 µg/mL (≈ 3.9 µM) under setting [18]. In addition, the MIC90 amounted to 6 µg/mL (≈ 7.79 µM) under setting [19], 3 µg/mL (≈ 3.9 µM) under setting [20], 1.5 µg/mL (≈ 1.95 µM) under setting [21] and 1.5 µg/mL (≈ 1.95 µM) under setting [22].

Source of the values: patent US9308215B2, “Avermectins and milbemycins as anti-mycobacterial agents” (priority 2013, dated 2016).
